# Publication PMC3944516, “Isolation and Characterization of Anti-Adenoviral Secondary Metabolites from Marine Actinobacteria” (Marine Drugs, 2014)
# “Also recorded” adds a separate entry of the source.
# Assays:
# HAdV type 5 [1] = test: quantitative real-time PCR (qPCR) anti-adenoviral dose-response assay; assay type: cell-based, human adenovirus type 5 (strain F2853-5b) in A549 cells; conditions: for anti-adenoviral activity (in words): dose-response up to 0.4 mM, qPCR 24 h post infection (Figure 8B); for EC50: Human mastadenovirus C, A549 host cells, qPCR of viral genomes after 24 h, duplicates
# Protocol: In order to confirm the antiviral activity observed during the screening campaign (Figure 3) and determine the EC50 values of the analogs, we conducted a dose-response experiment by a standardized quantitative real-time PCR (qPCR) assay (Figure 5). In this assay, the number of adenoviral genomes is assessed in relationship to the number of cells and the replication of HAdV type 5 on A549 host cells was assessed.
# Figure 5 Dose-response study of the identified compounds on HAdV type 5. Each concentration point was run in duplicate and qPCR-analysis performed after 24 h. The amount of HAdV type 5 genomes in each treated sample was compared to infected but non-treated samples to obtain the inhibition of the percentage of control (y-axis). See the experimental section for details.
# The quantitative Real Time PCR (qPCR) assay was performed as previously described. Briefly, A549 cells in 24 well plates (Nunc™ #142475) were infected with HAdV type 5 (1 pg per cell) and incubated with compound for 24 h. Thereafter, cellular and viral DNA was prepared using a QIAamp DNA blood minikit (Qiagen, Solna, Sweden) and quantitative real-time PCR was used to detect newly synthesized viral DNA and the inhibitory effect of the compounds. The principle of quantitative real-time PCR and the design of primers and probes for analysis of various HAdV types representing different adenovirus species have previously been described. Quantitative real-time PCR was carried out using a primer pair and a FAM-labeled probe detecting and amplifying the viral hexon gene. The amount of detected viral hexon DNA was normalized to the cellular RNaseP gene. Real-time PCR was performed in an ABI Prism 7900HT sequence detector and analyzed with Sequence Detector software version 2.4 (Applied Biosystems®, Life Technologies, Grand Island, NY, USA).
# Determination of the EC50 values was performed with non-linear regression analysis with a variable slope using GraphPad Prism software version 6.0c (GraphPad Software, San Diego, CA, USA).
# A549 cells = test: XTT based cytotoxicity test on A549 cells; assay type: cell-based, human; conditions: for concentration above which the viability of the cells is significantly reduced: A549 cells, XTT (Figure 8C)
# Description: (§1) Consideration of cellular cytotoxicity is essential when identifying antiviral compounds. Compounds that negatively interfere with the proliferation or viability of host cells will be recorded as false positives when assayed for antiviral activity. […] The XTT test measures the ability of mitochondrial enzymes to reduce 2,3-bis-(2-methoxy-4-nitro-5-sulfophenyl)-2H-tetrazolium-5-carboxanilide to a colored formazan dye that is spectrophotometrically quantified. […] Strikingly, butenolide 4 with the non-functionalized side-chain affected the viability dramatically. At both 400 and 800 μM of 4 the percentage of viable cells was close to zero, whereas for butenolide 1–3 the cells were as viable as the DMSO control at the concentrations tested. […] To further elucidate this difference and determine whether the cytotoxicity was cell type specific, we performed a dose-response experiment and investigated the cytotoxicity on human diploid fibroblasts derived from foreskin (FSU). FSU cells are isolated from the dermis of juvenile foreskin and, unlike A549 cells, are not derived from carcinoma, but primary cells with a limited expected number of cell divisions. […] However, the butenolide 4 with a non-functionalized side-chain reduced the viability of A549 cells and FSU cells to almost zero at 400 and 800 μM. […] The reason for the steep concentration dependence on cytotoxicity for the butenolide 4 containing a non-functionalized side-chain is presently unknown, and the large difference in cytotoxic potential between 4 and the other analogs is noteworthy when considering the minor structural differences in their side-chains.
# (§2) The potential cytotoxic effect of the compounds was determined with XTT-based Cell Proliferation Kit II (Roche Applied Science, Penzberg, Germany). This method is a colorimetric assay based on the cleavage of the tetrazolium salt XTT to a soluble formazan salt by viable cells. Approximately, 13,000 A549 cells were seeded per well in 96-well plates on the day before addition of compounds. The next day, the growth medium was removed from the wells and replaced with 100 μL of phenol-red free DMEM with 2% FBS containing compound. In parallel, an amount of DMSO corresponding to the same amount of test compound was added to the cells and the plate was incubated at 37 °C for 20 h. Subsequently, 50 μL of XTT solution was added per well and the plate was incubated at 37 °C for 4 h and finally the intensity of the formazan dye was measured by spectrophotometry at a wavelength of 490 nm.
# [2] = XTT based cytotoxicity test on A549 cells; assay type: cell-based, human; conditions: human, A549 cells, 24 h, XTT, normalized against DMSO controls, two independent experiments; for viability at 24 h, 400 µM: read-out: % Viable Cells at 400 μM; for viability at 24 h, 800 µM: read-out: % Viable Cells at 800 μM
# Description: as §1, §2
# [3] = system: FSU cells (human diploid fibroblasts derived from foreskin); test: XTT based cytotoxicity dose-response on FSU cells; assay type: cell-based; conditions: 24 h
# Description: as §1
# Figure 6 The cytotoxicity profile of butenolide ketone 3 and butenolide 4 with a non-functionalized side chain, on two cell lines, A549 cells and FSU cells, analyzed after 24 h. See experimental section for details.
# as §2
# HAdV type 5 [4] = test: time-of-addition assay (qPCR); assay type: cell-based, human adenovirus type 5 in A549 cells
# Protocol: Figure 7 Characterization of the antiviral activity of the butenolide ketone 3. The antiviral activity of the compounds was obtained by comparing the amount of HAdV type 5 genomes per cell to non-treated but infected control samples (y-axis). (A) Time-of-addition assay where 200 μM of butenolide ketone 3 was added at different time points in comparison to the addition of HAdV 5 at time 0 h. Samples were analyzed 24 h after the infection (+24 h) with qPCR; (B) Binding assay with ^35S-labelled HAdV 5 virions, with 200 μM compound 3 pretreated A549 cells for 1.5 h prior time-of-infection (TOI) and no pretreatment; (C) Virucidal assay where HAdV 5 virions were pretreated with 200 μM of butenolide ketone 3 prior addition to A549 cells and analyzed after 24 h. […]
# The quantitative Real Time PCR (qPCR) assay was performed as previously described. […] Thereafter, cellular and viral DNA was prepared using a QIAamp DNA blood minikit (Qiagen, Solna, Sweden) and quantitative real-time PCR was used to detect newly synthesized viral DNA and the inhibitory effect of the compounds. The principle of quantitative real-time PCR and the design of primers and probes for analysis of various HAdV types representing different adenovirus species have previously been described. Quantitative real-time PCR was carried out using a primer pair and a FAM-labeled probe detecting and amplifying the viral hexon gene. […]
# [5] = system: HAdV 5 virions binding to A549 cells; test: binding assay with 35S-labelled HAdV 5 virions; assay type: cell-based, human adenovirus type 5 in A549 cells; conditions: A549 cells pre-treated with 200 μM for 1.5 h, compared to the control
# Protocol: (§3) Figure 7 Characterization of the antiviral activity of the butenolide ketone 3. The antiviral activity of the compounds was obtained by comparing the amount of HAdV type 5 genomes per cell to non-treated but infected control samples (y-axis). (A) Time-of-addition assay where 200 μM of butenolide ketone 3 was added at different time points in comparison to the addition of HAdV 5 at time 0 h. Samples were analyzed 24 h after the infection (+24 h) with qPCR; (B) Binding assay with ^35S-labelled HAdV 5 virions, with 200 μM compound 3 pretreated A549 cells for 1.5 h prior time-of-infection (TOI) and no pretreatment; (C) Virucidal assay where HAdV 5 virions were pretreated with 200 μM of butenolide ketone 3 prior addition to A549 cells and analyzed after 24 h.
# This was primarily to investigate in which stage of the viral infectious cycle that the butenolide ketone 3 inhibited and consequently to reduce the number of possible drug-targets for further mode-of-action analysis. […] Simultaneous addition of 200 μM of 3 and virus (0 h) reduced the viral replication to below 20%, which is consistent with Figure 5. […]
# ^35S labelling of HAdV 5 was performed as previously described as well as the binding experiment. […] The cell-associated radioactivity was measured using a liquid scintillation counter (Wallac 1409, Perkin-Elmer, Waltham, MA, USA).
# HAdV 5 virions = test: virucidal assay; assay type: cell-based, human adenovirus type 5 in A549 cells; conditions: virions incubated with 200 μM for 2 h before infection, qPCR after 24 h
# Protocol: as §3
# This was primarily to investigate in which stage of the viral infectious cycle that the butenolide ketone 3 inhibited and consequently to reduce the number of possible drug-targets for further mode-of-action analysis. […]
# The HAdV type 5 stock was diluted in DMEM (Sigma-Aldrich, St. Louis, MO, USA) with 2% FBS (Gibco®, Life Technologies, Grand Island, NY, USA) to the appropriate concentration to be added per well. […] In parallel, an identical mixture with no incubation time was added to wells as a control and the antiviral activity was analyzed 24 h post infection with qPCR assay.
Compound,anti-adenoviral activity (in words) (HAdV type 5 [1]),concentration above which the viability of the cells is significantly reduced (A549 cells; 24 h),EC50 (HAdV type 5 [1]),"viability at 24 h, 400 µM [2]","viability at 24 h, 800 µM [2]",other results
CC[C@H](C)CCCCC[C@H]1CCC(=O)O1 [Compound 6],eliminated the antiviral activity,above 0.4 mM,,,,
CCC(C)CCCCCC1C=CC(=O)O1 (centres unmarked) [Compound 4],,above 0.2 mM,90 µM,3 ± 1%,3 ± 1%,"viability of A549 cells (in words) (A549 cells; 100 μM, 24 h, XTT (Figure 6)): in line with untreated DMSO control; cytotoxicity on A549 cells (in words) (A549 cells; 200 μM, 24 h, XTT (Figure 6)): toxicity was strongly decreased; viability of A549 cells (in words) (A549 cells; 400 and 800 μM, 24 h, XTT): close to zero; concentration showing cytotoxicity relative to EC50 (A549 cells; cytotoxic concentration compared with the EC50 on HAdV type 5): approximately three times its EC50 value; viability of FSU cells (in words) ([3]; 100 μM, XTT (Figure 6)): in line with untreated DMSO control; cytotoxicity on FSU cells (in words) ([3]; 200 μM, XTT (Figure 6)): toxicity was strongly decreased; viability of FSU cells (in words) ([3]; 400 and 800 μM, XTT): almost zero"
CC(=O)[C@H](C)CCCCC[C@H]1CCC(=O)O1 [Compound 5],eliminated the antiviral activity,,,,,
CC(=O)[C@H](C)CCCCC[C@H]1C=CC(=O)O1 [Compound 3],,,91 µM,102 ± 5%,101 ± 3%,"cytotoxicity (in words) (A549 cells; XTT, concentrations tested): no cytotoxicity; cytotoxicity at the highest concentration (in words) ([3]; 2 mM, XTT (Figure 6)): no prominent cytotoxicity; also recorded: did not affect the viability of FSU cells to a great extent; viral replication, % of non-treated infected control (HAdV type 5 [4]; 200 μM added simultaneously with virus (0 h), qPCR 24 h after infection): below 20%; effect on viral infection (in words) (HAdV type 5 [4]; cells pre-incubated with 200 μM for four hours prior to the addition of virus, qPCR at 24 h): completely blocked the viral infection; binding of the virus to the cells (in words) [5]: did not reduce the binding of the virus to the cells; virucidal activity (in words) (HAdV 5 virions): did not differ between the pretreated and non-pretreated virions"
CCC(C)(O)CCCCC[C@H]1C=CC(=O)O1 (some centres unmarked) [Compound 2],,,183 µM,106 ± 7%,100 ± 3%,
C[C@H](O)[C@H](C)CCCCC[C@H]1C=CC(=O)O1 [Compound 1a],,,113 µM,98 ± 6%,96 ± 4%,
